Results published in patent publication US12427134B2, “Methods of reducing the risk of cardiovascular events in a subject with atrial fibrillation and/or atrial flutter” (priority 2019, dated 2025).

Test system: hypertriglyceridemic patients with cardiovascular disease or at high risk for cardiovascular disease
Assay: REDUCE-IT: treatment-emergent adverse events and serious adverse events (safety population)
[1] = BMI ≥25 to <30 kg/m^2 (N = 1427)
[2] = No Ezetimibe at baseline (N = 3827)
[3] = Region Eastern Europe (N = 1053)

Description: Specification of Variables and Procedures: Safety assessments included adverse events, clinical laboratory measurements (chemistry, hematology), 12-lead ECGs, vital signs (systolic and diastolic blood pressure, heart rate, respiratory rate, and body temperature), weight, waist circumference, and physical examinations as per Study Procedures in Table 1. […] All laboratory test results were evaluated by the investigator as to their clinical significance. Any observations at physical examinations or laboratory values considered by the investigator to be clinically significant were considered an adverse event.
An adverse event can therefore be any unfavorable and/or unintended sign (including an abnormal laboratory finding), symptom, or disease temporally associated with the use of an investigational medication product, whether or not related to the investigational medication product. All adverse events, including observed or volunteered problems, complaints, or symptoms, were recorded on the appropriate CRF. Each adverse event was evaluated for duration, intensity, and causal relationship with the study medication or other factors.
Adverse events, which included clinical laboratory test variables, were monitored from the time of informed consent until study participation was complete. Patients were instructed to report any adverse event that they experienced to the investigator. Beginning with Visit 2, investigators assessed for adverse events at each visit and recorded the event on the appropriate adverse event CRF.
Causality Assessment: The relationship of an adverse event to the administration of the study drug was assessed according to the following definitions: • No (unrelated, not related, no relation)—The time course between the administration of study drug and the occurrence or worsening of the adverse event rules out a causal relationship and another cause (concomitant drugs, therapies, complications, etc.) is suspected. • Yes (related, probably related, possibly related)—The time course between the administration of study drug and the occurrence or worsening of the adverse event is consistent with a causal relationship and no other cause (concomitant drugs, therapies, complications, etc.) can be identified.
Serious Adverse Events: A serious adverse event (SAE) is defined as an adverse event that meets any of the following criteria: • Results in death; • Is life-threatening—The term “life-threatening” in the definition of “serious” refers to an event in which the patient was at risk of death at the time of the event. […] Important medical events that may not result in death, be life threatening, or require hospitalization were considered an SAE when, based upon appropriate medical judgment, they may have jeopardized the patient and may have required medical or surgical intervention to prevent one of the outcomes listed above.
Analysis of Safety: All analyses of safety were conducted on the safety population, which was defined as all randomized patients. The safety assessment was based on the frequency of adverse events, physical exams, vital signs and safety laboratory tests. AEs with new onset during the study between the initiation of study drug and 30 days after the last dose of study drug for each patient was considered treatment-emergent (TEAEs). This included any AE with onset prior to initiation of study drug and increased severity after the treatment initiation.
This included overall incidence rates (regardless of severity and relationship to study drug), and incidence rates for moderate or severe adverse events. A summary of SAEs and adverse events leading to early discontinuation (for ≥30 days) were presented through data listings. Patients who restarted study drug were included in the summary of AEs leading to discontinuation.

In the case of CC/C=C\C/C=C\C/C=C\C/C=C\C/C=C\CCCC(=O)OCC [AMR101, eicosapentaenoic acid ethyl ester], the “Patients with at least 1 TEAE, %” value (Age <65 years (N = 2232)) was “(77.3) %”, the “TEAE: GI disorders, %” value (Age <65 years (N = 2232)) was “(27.9) %” and the “TEAE: General disorders and administration site condition, %” value (Age <65 years (N = 2232)) was “(21.6) %”. For the same compound, the “TEAE: Musculoskeletal and connective tissue disorders, %” value (Age <65 years (N = 2232)) was “(31.4) %”, the “TEAE: Nervous system disorders, %” value (Age <65 years (N = 2232)) was “(20.3) %” and the “TEAE: Respiratory, thoracic, and mediastinal disorders, %” value (shortened to “TEAE: Respiratory, thoracic … %”) (Age <65 years (N = 2232)) was “(18.9) %”. For the same compound, the “Patients with at least 1 TEAE, %” value (Age ≥65 years (N = 1857)) was “(87.1) %”, the “TEAE: GI disorders, %” value (Age ≥65 years (N = 1857)) was “(39.2) %” and the “TEAE: General disorders and administration site condition, %” value (Age ≥65 years (N = 1857)) was “(29.5) %”. The “TEAE: Musculoskeletal and connective tissue disorders, %” value (Age ≥65 years (N = 1857)) was “(41.2) %”, the “TEAE: Nervous system disorders, %” value (Age ≥65 years (N = 1857)) was “(29.7) %” and the “TEAE: Respiratory, thoracic … %” value (Age ≥65 years (N = 1857)) was “(30.5) %”. The “TEAEs, overall incidence” value (Asia Pacific region subgroup) was 76.9%, the “TEAE class nervous system disorders, patients” value (Asian Pacific region subgroup) was 20.8% and the “Patients with at least 1 TEAE, %” value (BMI <25 kg/m^2 (N = 320)) was “(80.6) %”. The “TEAE: GI disorders, %” value (BMI <25 kg/m^2 (N = 320)) was “(33.8) %”, the “TEAE: General disorders and administration site condition, %” value (BMI <25 kg/m^2 (N = 320)) was “(23.1) %” and the “TEAE: Musculoskeletal and connective tissue disorders, %” value (BMI <25 kg/m^2 (N = 320)) was “(26.9) %”. The “TEAE: Nervous system disorders, %” value (BMI <25 kg/m^2 (N = 320)) was “(22.8) %”, the “TEAE: Respiratory, thoracic … %” value (BMI <25 kg/m^2 (N = 320)) was “(21.3) %” and the “Patients with at least 1 TEAE, %” value [1] was “(81.5) %”. The “TEAE: GI disorders, %” value [1] was “(30.8) %”, the “TEAE: General disorders and administration site condition, %” value [1] was “(24.0) %” and the “TEAE: Musculoskeletal and connective tissue disorders, %” value [1] was “(33.4) %”. For the same compound, the “TEAE: Nervous system disorders, %” value [1] was “(23.6) %”, the “TEAE: Respiratory, thoracic … %” value [1] was “(22.7) %” and the “TEAE class GI disorders, patients” value (BMI ≥25 to <30 kg/m^2 subgroup) was 30.8%. For the same compound, the “Patients with at least 1 TEAE, %” value (BMI ≥30 kg/m^2 (N = 2331)) was “(82.3) %”, the “TEAE: GI disorders, %” value (BMI ≥30 kg/m^2 (N = 2331)) was “(34.3) %” and the “TEAE: General disorders and administration site condition, %” value (BMI ≥30 kg/m^2 (N = 2331)) was “(26.3) %”. The “TEAE: Musculoskeletal and connective tissue disorders, %” value (BMI ≥30 kg/m^2 (N = 2331)) was “(38.7) %”, the “TEAE: Nervous system disorders, %” value (BMI ≥30 kg/m^2 (N = 2331)) was “(25.5) %” and the “TEAE: Respiratory, thoracic … %” value (BMI ≥30 kg/m^2 (N = 2331)) was “(25.6) %”. The “Patients with at least 1 TEAE, %” value (Baseline Ezetimibe (N = 262)) was “(92.0) %”, the “TEAE: GI disorders, %” value (Baseline Ezetimibe (N = 262)) was “(37.4) %” and the “TEAE: General disorders and administration site condition, %” value (Baseline Ezetimibe (N = 262)) was “(26.3) %”. For the same compound, the “TEAE: Musculoskeletal and connective tissue disorders, %” value (Baseline Ezetimibe (N = 262)) was “(41.2) %”, the “TEAE: Nervous system disorders, %” value (Baseline Ezetimibe (N = 262)) was “(23.7) %” and the “TEAE: Respiratory, thoracic … %” value (Baseline Ezetimibe (N = 262)) was “(27.5) %”. The “Patients with at least 1 TEAE, %” value (CV Risk Category 1 (N = 2892)) was “(81.6) %”, the “TEAE: GI disorders, %” value (CV Risk Category 1 (N = 2892)) was “(31.3) %” and the “TEAE: General disorders and administration site condition, %” value (CV Risk Category 1 (N = 2892)) was “(25.3) %”. The “TEAE: Musculoskeletal and connective tissue disorders, %” value (CV Risk Category 1 (N = 2892)) was “(33.6) %”, the “TEAE: Nervous system disorders, %” value (CV Risk Category 1 (N = 2892)) was “(23.4) %” and the “TEAE: Respiratory, thoracic … %” value (CV Risk Category 1 (N = 2892)) was “(23.4) %”. The “Patients with at least 1 TEAE, %” value (CV Risk Category 2 (N = 1197)) was “(82.1) %”, the “TEAE: GI disorders, %” value (CV Risk Category 2 (N = 1197)) was “(37.2) %” and the “TEAE: General disorders and administration site condition, %” value (CV Risk Category 2 (N = 1197)) was “(24.9) %”. The “TEAE: Musculoskeletal and connective tissue disorders, %” value (CV Risk Category 2 (N = 1197)) was “(41.3) %”, the “TEAE: Nervous system disorders, %” value (CV Risk Category 2 (N = 1197)) was “(27.4) %” and the “TEAE: Respiratory, thoracic … %” value (CV Risk Category 2 (N = 1197)) was “(26.1) %”. The “Patients with at least 1 TEAE, %” value (Female (N = 1162)) was “(79.9) %”, the “TEAE: GI disorders, %” value (Female (N = 1162)) was “(38.3) %” and the “TEAE: General disorders and administration site condition, %” value (Female (N = 1162)) was “(25.5) %”. For the same compound, the “TEAE: Musculoskeletal and connective tissue disorders, %” value (Female (N = 1162)) was “(37.6) %”, the “TEAE: Nervous system disorders, %” value (Female (N = 1162)) was “(27.6) %” and the “TEAE: Respiratory, thoracic … %” value (Female (N = 1162)) was “(23.4) %”. The “Patients with at least 1 TEAE, %” value (Male (N = 2927)) was “(82.5) %”, the “TEAE: GI disorders, %” value (Male (N = 2927)) was “(30.9) %” and the “TEAE: General disorders and administration site condition, %” value (Male (N = 2927)) was “(25.1) %”. The “TEAE: Musculoskeletal and connective tissue disorders, %” value (Male (N = 2927)) was “(35.2) %”, the “TEAE: Nervous system disorders, %” value (Male (N = 2927)) was “(23.3) %” and the “TEAE: Respiratory, thoracic … %” value (Male (N = 2927)) was “(24.5) %”. For the same compound, the “Patients with at least 1 TEAE, %” value [2] was “(81.1) %”, the “TEAE: GI disorders, %” value [2] was “(32.7) %” and the “TEAE: General disorders and administration site condition, %” value [2] was “(25.1) %”. The “TEAE: Musculoskeletal and connective tissue disorders, %” value [2] was “(35.5) %”, the “TEAE: Nervous system disorders, %” value [2] was “(24.6) %” and the “TEAE: Respiratory, thoracic … %” value [2] was “(24.0) %”. The “Patients with at least 1 TEAE, %” value (Race Non-white (N = 398)) was “(81.4) %”, the “TEAE: GI disorders, %” value (Race Non-white (N = 398)) was “(28.9) %” and the “TEAE: General disorders and administration site condition, %” value (Race Non-white (N = 398)) was “(25.4) %”. For the same compound, the “TEAE: Musculoskeletal and connective tissue disorders, %” value (Race Non-white (N = 398)) was “(30.9) %”, the “TEAE: Nervous system disorders, %” value (Race Non-white (N = 398)) was “(23.4) %” and the “TEAE: Respiratory, thoracic … %” value (Race Non-white (N = 398)) was “(23.9) %”. The “Patients with at least 1 TEAE, %” value (Race White (N = 3691)) was “(81.8) %”, the “TEAE: GI disorders, %” value (Race White (N = 3691)) was “(33.5) %” and the “TEAE: General disorders and administration site condition, %” value (Race White (N = 3691)) was “(25.2) %”. For the same compound, the “TEAE: Musculoskeletal and connective tissue disorders, %” value (Race White (N = 3691)) was “(36.4) %”, the “TEAE: Nervous system disorders, %” value (Race White (N = 3691)) was “(24.7) %” and the “TEAE: Respiratory, thoracic … %” value (Race White (N = 3691)) was “(24.2) %”. For the same compound, the “Patients with at least 1 TEAE, %” value (Region Asia Pacific (N = 130)) was “(76.9) %”, the “TEAE: GI disorders, %” value (Region Asia Pacific (N = 130)) was “(18.5) %” and the “TEAE: General disorders and administration site condition, %” value (Region Asia Pacific (N = 130)) was “(22.3) %”. The “TEAE: Musculoskeletal and connective tissue disorders, %” value (Region Asia Pacific (N = 130)) was “(17.7) %”, the “TEAE: Nervous system disorders, %” value (Region Asia Pacific (N = 130)) was “(20.8) %” and the “TEAE: Respiratory, thoracic … %” value (Region Asia Pacific (N = 130)) was “(17.7) %”. For the same compound, the “Patients with at least 1 TEAE, %” value [3] was “(58.1) %”, the “TEAE: GI disorders, %” value [3] was “(11.9) %” and the “Patients with at least 1 TEAE, %” value (Region Westernized (N = 2906)) was “(90.5) %”. The “TEAE: GI disorders, %” value (Region Westernized (N = 2906)) was “(41.3) %”, the “TEAE: General disorders and administration site condition, %” value (Region Westernized (N = 2906)) was “(32.2) %” and the “TEAE: Musculoskeletal and connective tissue disorders, %” value (Region Westernized (N = 2906)) was “(46.4) %”. For the same compound, the “TEAE: Nervous system disorders, %” value (Region Westernized (N = 2906)) was “(30.0) %”.
